Assay results: US20220354911A1, “TREATMENT OF TUMORS BY A COMBINATION OF AN ONCOLYTIC ADENOVIRUS, A CDK4/6 INHIBITOR AND A FURTHER THERAPEUTICALLY ACTIVE AGENT” (KLINIKUM RECHTS DER ISAR DER TECHNISCHEN UNIVERSITÄT MÜNCHEN, priority 2019, published 2022)

Legend:
[1] = test system: RB, phospho-RB, E2F-1, Hexim1; test: Western blot of cellular target proteins after JQ-1 and Palbociclib; format: cell-based, human
Method: (§1) 1-2×10^6 UMUC-3 or RT-112 cells were seeded in 10 cm plates in DMEM medium and 24 hours post seeding treated with respective small molecular inhibitors. 24 hours post treatment, lysates of total proteins were taken using an SDS-buffer. BCA Assay was applied to adjust equivalent protein concentrations. Then, protein samples were supplemented with Lämmli buffer and separated via SDS-PA gelelectrophoresis on 10% PA-Gels. Samples were blotted onto PVDF membranes using a BioRAD Wet Tank System. These membranes were blocked with TBS-Tween buffer containing 5% Skim milk powder for 1 hour at room temperature. Incubation with primary antibodies was conducted over night at 4° C. and with HRP-conjugated secondary antibodies for 1 hour at room temperature. Chemiluminescence was detected using ECL prime (Pierce) with the ChemiDoc Imaging System (BioRad). Figures were designed in Adobe® Illustrator and evaluation was performed with ImageLab.

[2] = test system: E1A, E1B55k, DBP, E40rf6 and Hexon; test: Western blot of viral protein expression kinetics in UMUC-3 cells with JQ-1; format: cell-based, Mastadenovirus, Type C, Serotype 5; conditions: UMUC-3, 10 MOI
Method: as §1, with “1×10^6” for “1-2×10^6”, “UMUC-3” for “UMUC-3 or RT-112”, “infected” for “treated”, “10 MOI XVir-N-31. 1 hour” for “respective small molecular inhibitors. 24 hours”, “infection, culturing media was either refilled by DMEM or DMEM spiked with 500 nM JQ-1. 12, 24, 36 and 48 h.p.i,” for “treatment,”

XVir-N-31 = test: Hexon Titer test, particle formation of XVir-N-31 in UMUC-3 cells; format: cell-based, Mastadenovirus, Type C, Serotype 5
Method: The production of viral particles was analyzed via immunohistochemistry-staining of hexon proteins (Hexon Titer test). Therefor, 2×10^5 adherent HEK293 cells per well were seeded in 24-well plates. Cell cultures samples collected after indicated time-points post infection and indicated co-treatment with JQ-1 were pretreated with three cycles thaw-freeze to release viral particles from cells and then serially diluted. The HEK293 cells were infected in volumes of either 50 μl or 10 μl per sample. The plates were then incubated for 40 h at 37° C. and 10% CO2 before checking for detectable cytopathic effects. The medium was aspirated, and the plates were dried for 5-10 min before fixing the cells by adding ice-cold methanol for 10 min at −20° C. The wells were washed twice with PBS+1% BSA. The primary antibody (goat anti-hexon, 1:500) was added and the plates were incubated for 1 h at 37° C. before washing it twice with PBS+1% BSA. Next, the secondary antibody (Rabbit Anti-Goat HRP conjugate, 1:1000) was added and incubated for 1 h at 37° C. Again, the wells were washed twice with PBS containing 1% BSA before the DAB solution was added. After 30 min incubation, 10 different random fields of view (f.o.v.) per well were counted under the 20× objective of a microscope. Counting iterations were averaged and according to this formula, infectious particles per ml were calculated: […]

T24 cells = test: Potency assay (SRB), XVir-N-31, Palbociclib and JQ-1; format: cell-based, human
Method: 5000 T24 cells were seeded in 12 well plates and grown in 1 ml RPMI-Medium containing 10% FCS. Next day cells were treated with 500 nM Palbociclib and 300 nM JQ-1. 24 hours post treatment cells were infected with indicated MOIs of XVir-N-31 in 200 μl RPMI-Medium containing no FCS. After 1 hour 800 μl RPMI-Medium containing 10% FCS were added into each well. In addition, 500 nM Palbociclib and 300 nM JQ-1 were added to the medium. SRB-Staining took place 5 days post infection. Mock treated cells were set 100% cell survival.

## Cc1sc2c(c1C)C(c1ccc(Cl)cc1)=N[C@@H](CC(=O)OC(C)(C)C)c1nnc(C)n1-2 [JQ-1, thieno-triazolo-1-4-diazepine]
[1]; UMUC-3 and RT-112, 0.2 μM and 0.5 μM, 24 hours post treatment, monotherapy or with Palbociclib
  RB, phospho-RB or E2F-1 protein level: did not show any effects
[1]; UMUC-3 and RT-112, 24 hours post treatment
  Hexim1: downregulated
[2]; 500 nM JQ-1
  Hexon expression: expressed in high levels in early time-points
[2]; 500 nM JQ-1 concurrent, 12, 24, 36 and 48 h.p.i
  absolute viral protein expression and kinetic of XVir-N-31 viral proteins (E1A, E1B55k, DBP and E40rf6): highly accelerated
XVir-N-31; 500 nM JQ-1, 39, 49, 62 or 72 hpi
  particle formation of XVir-N-31: significantly increased
XVir-N-31; concurrent treatment with 500 nM JQ-1
  kinetic of XVir-N-31's particle formation: highly accelerated
T24 cells; T24, 300 nM JQ-1 alone, 10 and 20 MOI
  cell killing of XVir-N-31, JQ-1 monotherapy: did not increase cell killing
T24 cells; T24, 500 nM Palbociclib, 300 nM JQ-1, low MOIs, 5 days post infection
  cell killing capacity of XVir-N-31 in combination with Palbociclib: increased the cell killing capacity
